Read-outs that look alike come from different tables or passages of the source.

The subject of the assay is wild-type P. aeruginosa PA14. The experiment in a line: microbe, parasite or virus in culture. The conditions noted are these: for inhibition at 100 µM: Pseudomonas aeruginosa, PA14, 17 h; for inhibition at 100 µM / Efficacy (%): reduction of pyocyanin vs WT P. aeruginosa PA14: 0% = WT level, 100% = background medium; for inhibition of pyocyanin production (in words): wild-type P. aeruginosa PA14, end point assays at 100 μM. Type of assay: cell-based. As for the experimental part:
Methods. The oxidized form of pyocyanin imparts a green color to P. aeruginosa cultures, making the production of pyocyanin convenient to monitor by UV/Vis absorbance. Overnight P. aeruginosa cultures were subcultured into 5 mL fresh medium at 1:1000 dilution. Synthetic compounds were assayed at 100 μM for end point assays and at concentrations ranging from 200 nM to 200 μM for titrations following 17 hr of aerobic growth with shaking at 37° C. Cells were separated from culture fluids via centrifugation at 13,000 rpm for 15 min. Culture fluids were passed through 0.22 μm syringe driven filters (Millipore). Cell-free culture fluids were analyzed for pyocyanin using wavelength scans on a Beckman Coulter DU-800 spectrophotometer from 200 nm to 800 nm 695 nm was chosen for graphical representation. Titration data were fit with a variable-slope sigmoidal dose-response curve using GraphPad Prism to determine the IC50 values.
The compounds of the first library were assayed in wild-type (WT) P. aeruginosa PA14. Pyocyanin was used as a read-out for quorum sensing activity based on its absorbance at 695 nm. The efficacy of the compounds at reducing pyocyanin levels was calculated with respect to WT levels of pyocyanin, where WT levels of pyocyanin would lead to a 0% efficacy, and an absorbance equal to the background medium would lead to a 100% efficacy. Agonists that increase pyocyanin production have negative efficacy values.

[1] abbreviates: read-out: Efficacy (%), Table 4.
Where [2] appears, read: read-out: Efficacy (%), Table 3.
Where [3] appears, read: read-out: Efficacy (%), Table 2, negative = agonist.
The mark [4] stands for this setting: read-out: Efficacy (%), Table 1, negative = agonist.

`N#Cc1cccc(OCC(=O)Nc2ccnc(C(F)(F)F)c2)c1` [S74, 4-amino-2-trifluoromethylpyridine-C6-3-cyanophenoxyhybrid]: under setting [1], the inhibition at 100 µM turned out to be 0.48 ± 7%.
As to `O=C(COc1cccc(Br)c1)Nc1ccnc(F)c1` [S41, 4-amino-2-fluoropyridine-C6-3-bromophenoxyhybrid], the inhibition at 100 µM under setting [2] was 31 ± 6%.
Take `CCCCCCCCCC(=O)CC(=O)Nc1ccc2c(c1)c1ccccc1n2CC` [S31, 3OC12-3-amino-1-ethylcarbazole]: the inhibition at 100 µM under setting [3] stood at 9.3 ± 4%.
As to `O=C(CNc1cccc(F)c1)Nc1ccnc(C(F)(F)F)c1` [S80, 4-amino-2-trifluoromethylpyridine-C6-3-fluoroaniline hybrid], the inhibition at 100 µM under setting [1] stood at 100%. In addition, the “Efficacy (%)” value (Table 4) is 100 ± 4%.
With `O=C(COc1cccc(Br)c1)Nc1ccncc1` [S39, 4-aminopyridine-C6-3-bromophenoxyhybrid], under “Table 3, listed as drawing 60”, the “Efficacy (%)” value is reported as 53 ± 1%.
On to `Cc1cccc(OCC(=O)Nc2ccnc(C(F)(F)F)c2)c1` [S76, 4-amino-2-trifluoromethylpyridine-C6-3-methylphenoxyhybrid], for which the inhibition at 100 µM under setting [1] came to 81%. Further, where the note is “Table 4”, the “Efficacy (%)” value worked out at 81 ± 4%.
As to `CCCCCCCCCCCC(=O)N1CCN(c2ccncc2)CC1` [S24, C12-4-(piperazine)pyridine], the inhibition at 100 µM under setting [3] is -42 ± 2%.
On to `COc1cc(NC(=O)COc2cccc(Br)c2)ncn1` [S52, 4-amino-6-methoxypyrimidine-C6-3-bromophenoxyhybrid], for which the inhibition at 100 µM under setting [2] worked out at 41%. The “Efficacy (%)” value (Table 3) was determined as 41 ± 9%.
Take `O=C(CCCCOc1cccc(Br)c1)NC1CCSC1=O` (stereo not shown) [5C-mBTL]: the “inhibition of pyocyanin production (in words)” value is reported as “most effective inhibitor of pyocyanin production”.
As for `O=C(COc1c(F)c(F)c(F)c(F)c1F)Nc1ccnc(C(F)(F)F)c1` [S72, 4-amino-2-trifluoromethylpyridine-C6-perfluorophenoxyhybrid], the inhibition at 100 µM under setting [1] came to 21 ± 14%.
On to `CCCCCCCCCC(=O)CC(=O)Nc1ccnc(F)c1` [S18, 3OC12-4-amino-2-fluoropyridine], for which the inhibition at 100 µM under setting [3] is -8.5 ± 3%.
Consider `CCCCCCCCCCCC(=O)Nc1ccccn1` [S6, C12-2-aminopyridine], for which the inhibition at 100 µM under setting [4] was found to be 55 ± 3%.
Consider `O=C(COc1c(F)cccc1F)Nc1ccnc(C(F)(F)F)c1` [S71, 4-amino-2-trifluoromethylpyridine-C6-2,6-bisfluorophenoxyhybrid], for which the inhibition at 100 µM under setting [1] was 66 ± 4%.
As for `CCCCCCCCCCCC(=O)Nc1ncccn1` [S11, C12-2-aminopyrimidine], the inhibition at 100 µM under setting [4] stood at 23 ± 3%.
Consider `CCCCCCCCCCCCNC(=O)c1ccncc1` [S21, C12-isonicotinic amide], for which the inhibition at 100 µM under setting [3] stood at 13 ± 3%.
For `CCCCCCCCCCCC(=O)Nc1ccncn1` [S9, C12-4-aminopyrimidine], the inhibition at 100 µM under setting [4] stood at 55 ± 8%.
Turning to `CCCCCCCCCCCC(=O)Nc1ccncc1C(F)(F)F` [S14, C12-4-amino-3-trifluoromethylpyridine], the inhibition at 100 µM under setting [3] was -17 ± 2%.
Take `O=C(COc1cccc(O)c1)Nc1ccnc(C(F)(F)F)c1` [S77, 4-amino-2-trifluoromethylpyridine-C6-3-hydroxyphenoxyhybrid]: under setting [1], the inhibition at 100 µM was 70%. In addition, the “Efficacy (%)” value (Table 4) turned out to be 70 ± 7%.
For `CCCCCCCCCC(=O)CC(=O)Nc1cccnc1` [S2, 3OC12-3-aminopyridine], under setting [4], the inhibition at 100 µM was 10 ± 9%.
As for `CCCCCCCCCCCC(=O)Nc1cnccn1` [S10, C12-2-aminopyrazine], under setting [4], the inhibition at 100 µM was -38 ± 3%.
Turning to `CCCCCCCCCCCC(=O)Nc1ccc2[nH]ccc2c1` [S25, C12-5-aminoindole], the inhibition at 100 µM under setting [3] is -11 ± 3%.
On to `CCCCCCCCCCCC(=O)NCc1ccncc1` [S22, C12-4-(aminomethyl)pyridine], for which the inhibition at 100 µM under setting [3] came out at 7.7 ± 5%.
Take `O=C(CCCOc1cccc(Br)c1)N[C@H]1CCOC1=O` [mBL]: the “inhibition of pyocyanin production (in words)” value is given as “most effective inhibitor of pyocyanin production”.
On to `CCCCCCCCCCCC(=O)O/N=C1\COc2ccccc21` [S29, C12-dihydrobenzofuran acylhydroxylamine], for which the inhibition at 100 µM under setting [3] was 12 ± 3%.
